In ChEMBL document CHEMBL3991601, “The target landscape of clinical kinase drugs” (Science, 2017):
Calls of active or inactive are those of the source. For most assays here, no stated cut-off is given here; in the data, actives have a measured Kd and inactives only a lower limit.

Assays:
[1] = target: T1, Mitogen-activated protein kinase kinase kinase 5 (Homo sapiens, UniProt Q99683)
T1 sequence (Q99683 whole entry): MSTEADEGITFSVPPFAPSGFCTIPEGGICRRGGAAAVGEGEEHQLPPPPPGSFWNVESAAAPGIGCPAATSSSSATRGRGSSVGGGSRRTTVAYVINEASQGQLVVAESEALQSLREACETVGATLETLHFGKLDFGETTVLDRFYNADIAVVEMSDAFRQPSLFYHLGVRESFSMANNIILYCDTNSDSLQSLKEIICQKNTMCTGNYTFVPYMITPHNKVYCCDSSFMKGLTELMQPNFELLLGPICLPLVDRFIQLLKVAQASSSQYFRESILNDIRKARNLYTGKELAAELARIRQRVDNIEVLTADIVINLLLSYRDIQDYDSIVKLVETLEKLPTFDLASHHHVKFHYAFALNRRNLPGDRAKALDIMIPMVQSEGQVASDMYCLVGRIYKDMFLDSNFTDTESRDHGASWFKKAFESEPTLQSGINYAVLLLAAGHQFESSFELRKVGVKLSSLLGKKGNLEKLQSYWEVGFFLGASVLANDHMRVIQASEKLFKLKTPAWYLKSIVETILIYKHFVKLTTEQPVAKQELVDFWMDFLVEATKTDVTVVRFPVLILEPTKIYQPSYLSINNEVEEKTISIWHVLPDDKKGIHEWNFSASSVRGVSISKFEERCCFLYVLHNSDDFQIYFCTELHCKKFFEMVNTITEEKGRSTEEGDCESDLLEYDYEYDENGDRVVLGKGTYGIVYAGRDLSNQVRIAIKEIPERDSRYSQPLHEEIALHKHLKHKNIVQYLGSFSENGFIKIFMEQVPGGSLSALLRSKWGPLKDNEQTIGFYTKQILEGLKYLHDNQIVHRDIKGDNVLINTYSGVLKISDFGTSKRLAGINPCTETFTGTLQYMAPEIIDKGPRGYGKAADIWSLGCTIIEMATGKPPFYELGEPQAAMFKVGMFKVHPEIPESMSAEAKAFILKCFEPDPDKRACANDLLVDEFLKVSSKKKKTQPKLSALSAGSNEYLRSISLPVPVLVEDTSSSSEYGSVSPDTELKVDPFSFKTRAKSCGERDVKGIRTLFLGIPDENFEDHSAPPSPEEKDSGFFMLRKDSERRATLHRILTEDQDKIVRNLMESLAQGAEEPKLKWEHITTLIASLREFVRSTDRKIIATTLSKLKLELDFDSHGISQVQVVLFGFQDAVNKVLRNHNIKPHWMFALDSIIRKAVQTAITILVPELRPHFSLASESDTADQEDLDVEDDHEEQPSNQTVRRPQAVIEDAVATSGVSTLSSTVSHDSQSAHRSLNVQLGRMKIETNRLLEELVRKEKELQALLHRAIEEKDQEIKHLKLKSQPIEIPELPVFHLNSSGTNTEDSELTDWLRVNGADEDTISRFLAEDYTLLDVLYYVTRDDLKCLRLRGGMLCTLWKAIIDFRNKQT

[2] = target: Glycogen synthase kinase-3 alpha (Homo sapiens, UniProt P49840)
[3] = target: T2, Serine/threonine-protein kinase ICK (Homo sapiens, UniProt Q9UPZ9)
T2 sequence (Q9UPZ9 whole entry): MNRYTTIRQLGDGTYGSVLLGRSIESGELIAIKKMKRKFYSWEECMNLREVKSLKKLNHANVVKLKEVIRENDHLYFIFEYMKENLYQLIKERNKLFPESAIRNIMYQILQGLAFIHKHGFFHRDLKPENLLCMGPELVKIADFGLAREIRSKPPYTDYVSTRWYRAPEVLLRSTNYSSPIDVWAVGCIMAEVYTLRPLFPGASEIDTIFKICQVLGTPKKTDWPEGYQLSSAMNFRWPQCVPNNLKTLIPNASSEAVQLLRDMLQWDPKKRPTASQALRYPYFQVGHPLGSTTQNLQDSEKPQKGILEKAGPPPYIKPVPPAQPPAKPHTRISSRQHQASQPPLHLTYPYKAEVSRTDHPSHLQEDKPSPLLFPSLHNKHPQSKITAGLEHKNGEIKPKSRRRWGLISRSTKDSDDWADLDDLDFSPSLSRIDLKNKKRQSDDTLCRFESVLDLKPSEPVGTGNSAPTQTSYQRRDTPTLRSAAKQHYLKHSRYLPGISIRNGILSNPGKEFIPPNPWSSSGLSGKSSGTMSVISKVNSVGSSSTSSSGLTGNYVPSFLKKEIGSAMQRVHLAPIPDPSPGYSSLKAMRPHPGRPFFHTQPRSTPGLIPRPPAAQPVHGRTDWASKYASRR

[4] = target: Bone morphogenetic protein receptor type-1A (Homo sapiens, UniProt P36894)
[5] = target: Serine/threonine-protein kinase 26 (Homo sapiens, UniProt Q9P289)
[6] = target: Protein kinase C beta type (Homo sapiens, UniProt P05771)
[7] = target: T3, Serine/threonine-protein kinase 4 (Homo sapiens, UniProt Q13043)
T3 sequence (Q13043 whole entry): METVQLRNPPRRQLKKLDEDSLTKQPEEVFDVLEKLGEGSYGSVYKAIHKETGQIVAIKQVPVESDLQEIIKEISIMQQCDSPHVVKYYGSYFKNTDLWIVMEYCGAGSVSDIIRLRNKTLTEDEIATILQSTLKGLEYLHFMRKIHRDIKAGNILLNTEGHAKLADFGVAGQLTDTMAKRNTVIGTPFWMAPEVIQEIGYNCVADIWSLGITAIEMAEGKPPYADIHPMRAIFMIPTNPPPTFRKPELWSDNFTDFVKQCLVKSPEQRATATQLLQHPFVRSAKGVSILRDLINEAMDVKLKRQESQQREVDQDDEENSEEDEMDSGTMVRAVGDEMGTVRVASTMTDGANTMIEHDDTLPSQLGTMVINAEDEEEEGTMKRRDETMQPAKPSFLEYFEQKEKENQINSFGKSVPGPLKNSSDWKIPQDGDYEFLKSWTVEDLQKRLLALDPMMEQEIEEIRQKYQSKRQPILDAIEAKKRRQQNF

[8] = target: S-adenosylmethionine synthase isoform type-2 (Homo sapiens, UniProt P31153)
[9] = target: Serine/threonine-protein kinase SIK2 (Homo sapiens, UniProt Q9H0K1)
[10] = target: MAP kinase-activated protein kinase 2 (Homo sapiens, UniProt P49137)
[11] = target: Protein-tyrosine kinase 2-beta (Homo sapiens, UniProt Q14289)
Protein-tyrosine kinase 2-beta, sequence (Q14289 whole entry): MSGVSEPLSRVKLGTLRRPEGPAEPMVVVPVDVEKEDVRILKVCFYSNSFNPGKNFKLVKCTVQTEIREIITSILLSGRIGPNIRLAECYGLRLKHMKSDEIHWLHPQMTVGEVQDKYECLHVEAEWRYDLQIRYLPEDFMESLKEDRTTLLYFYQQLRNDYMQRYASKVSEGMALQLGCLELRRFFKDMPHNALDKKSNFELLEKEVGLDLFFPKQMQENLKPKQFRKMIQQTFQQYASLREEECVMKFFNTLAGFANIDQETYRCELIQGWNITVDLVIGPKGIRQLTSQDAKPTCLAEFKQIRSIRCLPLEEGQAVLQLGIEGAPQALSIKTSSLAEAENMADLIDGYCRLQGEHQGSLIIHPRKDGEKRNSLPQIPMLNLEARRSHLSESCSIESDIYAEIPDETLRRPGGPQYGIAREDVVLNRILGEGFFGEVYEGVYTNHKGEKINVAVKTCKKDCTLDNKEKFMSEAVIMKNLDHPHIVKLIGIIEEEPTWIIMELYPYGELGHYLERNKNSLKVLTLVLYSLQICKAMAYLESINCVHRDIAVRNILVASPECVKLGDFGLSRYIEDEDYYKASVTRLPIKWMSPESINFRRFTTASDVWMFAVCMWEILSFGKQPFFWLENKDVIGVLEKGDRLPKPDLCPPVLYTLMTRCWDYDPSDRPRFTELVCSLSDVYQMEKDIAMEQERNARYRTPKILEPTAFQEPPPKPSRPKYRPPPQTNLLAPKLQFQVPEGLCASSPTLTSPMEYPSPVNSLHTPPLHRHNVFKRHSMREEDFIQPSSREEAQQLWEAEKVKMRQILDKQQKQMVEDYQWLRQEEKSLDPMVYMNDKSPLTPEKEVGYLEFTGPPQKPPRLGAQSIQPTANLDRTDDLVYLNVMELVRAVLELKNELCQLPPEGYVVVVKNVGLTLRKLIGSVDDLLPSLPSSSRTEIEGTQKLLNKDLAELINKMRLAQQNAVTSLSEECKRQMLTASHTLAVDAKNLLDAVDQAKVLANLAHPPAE

Glycogen synthase kinase-3 alpha, sequence (P49840 whole entry): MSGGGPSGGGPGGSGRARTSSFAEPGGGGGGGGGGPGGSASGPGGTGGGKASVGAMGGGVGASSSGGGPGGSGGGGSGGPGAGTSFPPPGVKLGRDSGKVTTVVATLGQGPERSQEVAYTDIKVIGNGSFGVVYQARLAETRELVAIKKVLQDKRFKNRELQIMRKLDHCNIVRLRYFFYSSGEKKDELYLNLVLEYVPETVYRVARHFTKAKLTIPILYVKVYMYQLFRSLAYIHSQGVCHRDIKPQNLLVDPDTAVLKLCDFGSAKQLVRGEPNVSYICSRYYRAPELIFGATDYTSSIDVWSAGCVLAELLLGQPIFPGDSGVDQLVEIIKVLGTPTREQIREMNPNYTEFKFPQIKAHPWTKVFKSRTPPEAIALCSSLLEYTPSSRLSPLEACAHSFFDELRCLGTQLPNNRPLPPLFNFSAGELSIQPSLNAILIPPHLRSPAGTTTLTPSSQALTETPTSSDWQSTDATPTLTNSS
Serine/threonine-protein kinase SIK2, sequence (Q9H0K1 whole entry): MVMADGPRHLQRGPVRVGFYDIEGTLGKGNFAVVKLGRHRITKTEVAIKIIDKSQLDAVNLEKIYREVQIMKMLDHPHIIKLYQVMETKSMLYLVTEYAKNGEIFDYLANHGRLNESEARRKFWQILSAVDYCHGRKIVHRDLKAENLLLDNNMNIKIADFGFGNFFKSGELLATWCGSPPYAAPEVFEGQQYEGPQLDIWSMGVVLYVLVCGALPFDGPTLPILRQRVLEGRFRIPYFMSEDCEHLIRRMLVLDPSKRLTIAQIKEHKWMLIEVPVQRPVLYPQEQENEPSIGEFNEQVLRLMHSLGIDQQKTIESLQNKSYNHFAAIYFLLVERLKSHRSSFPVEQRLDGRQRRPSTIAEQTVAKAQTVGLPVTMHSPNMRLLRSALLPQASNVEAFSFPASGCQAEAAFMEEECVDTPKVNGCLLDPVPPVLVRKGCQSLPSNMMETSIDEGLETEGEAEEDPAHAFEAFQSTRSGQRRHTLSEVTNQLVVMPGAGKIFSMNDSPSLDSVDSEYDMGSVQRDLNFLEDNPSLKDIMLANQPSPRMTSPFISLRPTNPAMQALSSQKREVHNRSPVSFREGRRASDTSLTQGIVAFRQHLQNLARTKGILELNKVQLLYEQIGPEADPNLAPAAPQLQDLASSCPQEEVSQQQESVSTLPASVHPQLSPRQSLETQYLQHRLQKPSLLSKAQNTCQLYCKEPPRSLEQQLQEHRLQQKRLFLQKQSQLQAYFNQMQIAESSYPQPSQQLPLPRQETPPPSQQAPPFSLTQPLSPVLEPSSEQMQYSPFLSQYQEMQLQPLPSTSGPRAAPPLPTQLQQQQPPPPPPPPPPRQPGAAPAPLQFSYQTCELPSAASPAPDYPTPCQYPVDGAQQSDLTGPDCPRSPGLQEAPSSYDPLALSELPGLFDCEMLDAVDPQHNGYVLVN
S-adenosylmethionine synthase isoform type-2, sequence (P31153 whole entry, canonical isoform): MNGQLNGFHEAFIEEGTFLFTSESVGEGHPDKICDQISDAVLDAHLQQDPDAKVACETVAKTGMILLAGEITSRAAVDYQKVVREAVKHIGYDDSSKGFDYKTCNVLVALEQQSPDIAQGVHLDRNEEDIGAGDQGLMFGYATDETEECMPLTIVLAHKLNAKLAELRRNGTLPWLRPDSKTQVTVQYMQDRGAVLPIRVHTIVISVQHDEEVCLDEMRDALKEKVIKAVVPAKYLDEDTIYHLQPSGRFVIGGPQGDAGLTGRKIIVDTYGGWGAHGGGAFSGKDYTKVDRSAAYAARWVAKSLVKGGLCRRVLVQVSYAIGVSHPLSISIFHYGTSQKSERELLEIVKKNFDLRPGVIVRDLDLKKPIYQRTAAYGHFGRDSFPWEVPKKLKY
Bone morphogenetic protein receptor type-1A, sequence (P36894 whole entry): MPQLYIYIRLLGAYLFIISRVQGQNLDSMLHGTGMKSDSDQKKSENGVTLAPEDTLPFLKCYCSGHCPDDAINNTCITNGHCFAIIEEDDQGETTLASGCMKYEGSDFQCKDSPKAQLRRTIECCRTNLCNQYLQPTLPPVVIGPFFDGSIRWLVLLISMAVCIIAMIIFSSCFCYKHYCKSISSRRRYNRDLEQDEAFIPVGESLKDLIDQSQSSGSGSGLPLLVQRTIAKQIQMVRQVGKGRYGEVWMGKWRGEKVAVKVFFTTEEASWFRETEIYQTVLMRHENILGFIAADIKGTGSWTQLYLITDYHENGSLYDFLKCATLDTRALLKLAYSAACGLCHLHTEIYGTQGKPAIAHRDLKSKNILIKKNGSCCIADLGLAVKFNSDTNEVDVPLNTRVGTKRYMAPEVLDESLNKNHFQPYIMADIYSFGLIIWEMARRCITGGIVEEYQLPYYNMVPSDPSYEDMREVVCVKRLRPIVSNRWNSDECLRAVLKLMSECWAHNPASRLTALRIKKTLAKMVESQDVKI
Protein kinase C beta type, sequence (P05771 whole entry): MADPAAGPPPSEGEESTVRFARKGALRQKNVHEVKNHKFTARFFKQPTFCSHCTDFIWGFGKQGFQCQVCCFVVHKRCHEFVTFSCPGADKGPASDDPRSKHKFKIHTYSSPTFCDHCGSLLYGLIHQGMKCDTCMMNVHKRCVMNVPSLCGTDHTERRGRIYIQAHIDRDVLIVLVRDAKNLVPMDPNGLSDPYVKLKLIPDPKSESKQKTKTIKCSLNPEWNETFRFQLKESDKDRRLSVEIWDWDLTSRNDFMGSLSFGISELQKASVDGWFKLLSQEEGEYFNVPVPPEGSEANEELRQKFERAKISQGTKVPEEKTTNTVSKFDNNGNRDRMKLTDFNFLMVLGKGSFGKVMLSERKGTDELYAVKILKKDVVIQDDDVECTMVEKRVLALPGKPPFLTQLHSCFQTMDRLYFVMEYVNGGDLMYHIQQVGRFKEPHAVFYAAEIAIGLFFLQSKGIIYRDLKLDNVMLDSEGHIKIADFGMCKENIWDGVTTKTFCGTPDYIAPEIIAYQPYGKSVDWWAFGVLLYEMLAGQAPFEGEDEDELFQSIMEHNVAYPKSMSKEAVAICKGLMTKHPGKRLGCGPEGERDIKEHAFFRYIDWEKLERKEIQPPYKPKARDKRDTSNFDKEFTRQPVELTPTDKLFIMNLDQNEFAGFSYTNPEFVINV
MAP kinase-activated protein kinase 2, sequence (P49137 whole entry): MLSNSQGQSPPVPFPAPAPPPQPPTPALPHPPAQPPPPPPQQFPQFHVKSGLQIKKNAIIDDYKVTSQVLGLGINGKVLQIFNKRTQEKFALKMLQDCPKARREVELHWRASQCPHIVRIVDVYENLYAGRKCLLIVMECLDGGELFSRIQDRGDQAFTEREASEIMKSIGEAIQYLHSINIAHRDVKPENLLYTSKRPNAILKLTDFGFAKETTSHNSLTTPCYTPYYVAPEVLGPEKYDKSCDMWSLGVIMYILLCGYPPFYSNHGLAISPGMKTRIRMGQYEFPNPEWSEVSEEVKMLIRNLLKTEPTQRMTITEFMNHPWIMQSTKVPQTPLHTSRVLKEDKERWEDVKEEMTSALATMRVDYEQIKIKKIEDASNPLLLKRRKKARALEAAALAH
Serine/threonine-protein kinase 26, sequence (Q9P289 whole entry): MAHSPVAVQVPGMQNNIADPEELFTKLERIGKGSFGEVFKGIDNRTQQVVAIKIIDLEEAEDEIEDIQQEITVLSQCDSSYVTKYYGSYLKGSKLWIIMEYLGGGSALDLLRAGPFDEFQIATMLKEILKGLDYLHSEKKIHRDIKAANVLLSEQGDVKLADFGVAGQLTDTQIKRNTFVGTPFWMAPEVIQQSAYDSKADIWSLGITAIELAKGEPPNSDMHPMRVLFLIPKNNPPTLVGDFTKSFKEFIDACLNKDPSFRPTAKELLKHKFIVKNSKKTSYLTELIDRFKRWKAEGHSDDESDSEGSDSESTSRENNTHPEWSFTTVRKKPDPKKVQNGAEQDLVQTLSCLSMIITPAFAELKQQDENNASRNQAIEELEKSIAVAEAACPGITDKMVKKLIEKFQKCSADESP

Row | SMILES | Kd [1] | Kd [2] | Kd [3] | Kd [4] | Kd [5] | Kd [6] | Kd [7] | Kd [8] | Kd [9] | Kd [10] | Kd [11]
1 | CN(c1ncccc1CNc1nc(Nc2ccc3c(c2)CC(=O)N3)ncc1C(F)(F)F)S(C)(=O)=O [PF-00562271] | > 30 µM (inactive) | 0.845 µM (active) | > 30 µM (inactive) | > 30 µM (inactive) | 0.012 µM | > 30 µM (inactive) | 5.93 µM (active) | > 30 µM (inactive) | – | – | –
2 | C=CCn1c(=O)c2cnc(Nc3ccc(N4CCN(C)CC4)cc3)nc2n1-c1cccc(C(C)(C)O)n1 [ADAVOSERTIB] | > 30 µM (inactive) | – | > 30 µM (inactive) | > 30 µM (inactive) | > 30 µM (inactive) | > 30 µM (inactive) | > 30 µM (inactive) | > 30 µM (inactive) | > 30 µM (inactive) | > 30 µM (inactive) | > 30 µM (inactive)
3 | COc1cc2c(Oc3ccc4[nH]c(C)cc4c3F)ncnc2cc1OCCCN1CCCC1 [CEDIRANIB] | – | – | – | – | – | > 30 µM (inactive) | – | > 30 µM (inactive) | – | – | –
4 | N#CCNC(=O)c1ccc(-c2ccnc(Nc3ccc(N4CCOCC4)cc3)n2)cc1 [MOMELOTINIB] | > 30 µM (inactive) | > 30 µM (inactive) | – | > 30 µM (inactive) | > 30 µM (inactive) | > 30 µM (inactive) | > 30 µM (inactive) | > 30 µM (inactive) | 0.79 µM (active) | > 30 µM (inactive) | –
5 | CC1(C)CNc2cc(NC(=O)c3cccnc3NCc3ccncc3)ccc21 [MOTESANIB] | – | – | – | – | – | > 30 µM (inactive) | – | > 30 µM (inactive) | – | – | –
6 | NC[C@@](O)(c1ccc(Cl)cc1)c1ccc(-c2cn[nH]c2)cc1 [AT-13148] | > 30 µM (inactive) | > 30 µM (inactive) | – | > 30 µM (inactive) | > 30 µM (inactive) | > 30 µM (inactive) | > 30 µM (inactive) | > 30 µM (inactive) | > 30 µM (inactive) | > 30 µM (inactive) | > 30 µM (inactive)
7 | Cc1c(NC(=O)OC[C@@H]2COCCN2)cn2ncnc(Nc3ccc4c(cnn4Cc4cccc(F)c4)c3)c12 [AC-480] | > 30 µM (inactive) | > 30 µM (inactive) | – | > 30 µM (inactive) | > 30 µM (inactive) | > 30 µM (inactive) | > 30 µM (inactive) | > 30 µM (inactive) | > 30 µM (inactive) | > 30 µM (inactive) | > 30 µM (inactive)
8 | CN(C)C/C=C/C(=O)Nc1cc2c(Nc3ccc(F)c(Cl)c3)ncnc2cc1O[C@H]1CCOC1 [AFATINIB] | – | – | – | – | – | > 30 µM (inactive) | – | > 30 µM (inactive) | – | – | –
9 | S=C(NCc1ccc2c(c1)OCO2)N1CCN(c2ncnc3c2oc2ccccc23)CC1 [AMUVATINIB] | > 30 µM (inactive) | > 30 µM (inactive) | – | > 30 µM (inactive) | > 30 µM (inactive) | > 30 µM (inactive) | > 30 µM (inactive) | > 30 µM (inactive) | > 30 µM (inactive) | > 30 µM (inactive) | > 30 µM (inactive)
10 | Cn1cnc2c(F)c(Nc3ccc(Br)cc3Cl)c(C(=O)NOCCO)cc21 [SELUMETINIB] | – | – | – | – | – | > 30 µM (inactive) | – | > 30 µM (inactive) | – | – | –
11 | Cn1c(=O)n(-c2ccc(C(C)(C)C#N)cc2)c2c3cc(-c4cnc5ccccc5c4)ccc3ncc21 [DACTOLISIB] | > 30 µM (inactive) | – | > 30 µM (inactive) | > 30 µM (inactive) | > 30 µM (inactive) | > 30 µM (inactive) | > 30 µM (inactive) | > 30 µM (inactive) | > 30 µM (inactive) | > 30 µM (inactive) | > 30 µM (inactive)
12 | COc1cc2c(N3CCN(C(=O)Nc4ccc(OC(C)C)cc4)CC3)ncnc2cc1OCCCN1CCCCC1 [TANDUTINIB] | – | – | – | – | – | > 30 µM (inactive) | – | > 30 µM (inactive) | – | – | –
13 | O=S(=O)(c1cccc2cnccc12)N1CCCNCC1 [FASUDIL] | > 30 µM (inactive) | – | – | > 30 µM (inactive) | > 30 µM (inactive) | > 30 µM (inactive) | > 30 µM (inactive) | > 30 µM (inactive) | > 30 µM (inactive) | – | > 30 µM (inactive)
14 | CCN(CCCOc1ccc2c(Nc3cc(CC(=O)Nc4cccc(F)c4)n[nH]3)ncnc2c1)CCOP(=O)(O)O [BARASERTIB] | > 30 µM (inactive) | – | > 30 µM (inactive) | > 30 µM (inactive) | > 30 µM (inactive) | > 30 µM (inactive) | > 30 µM (inactive) | > 30 µM (inactive) | – | > 30 µM (inactive) | > 30 µM (inactive)
15 | C[C@@]1(C(=O)Nc2ccc(F)nc2)CCCN1c1nc(Nc2cc(C3CC3)n[nH]2)c2cccn2n1 [BMS-754807] | – | – | – | – | – | > 30 µM (inactive) | – | > 30 µM (inactive) | – | – | –
16 | O=C(NC[C@H](O)CO)c1ccncc1Nc1ccc(I)cc1F [PIMASERTIB] | > 30 µM (inactive) | > 30 µM (inactive) | – | > 30 µM (inactive) | > 30 µM (inactive) | > 30 µM (inactive) | > 30 µM (inactive) | > 30 µM (inactive) | > 30 µM (inactive) | > 30 µM (inactive) | > 30 µM (inactive)
17 | O=c1[nH]c([C@@H]2CCCN2)nc2c1oc1ccc(Cl)cc12 | > 30 µM (inactive) | > 30 µM (inactive) | – | > 30 µM (inactive) | > 30 µM (inactive) | > 30 µM (inactive) | > 30 µM (inactive) | > 30 µM (inactive) | > 30 µM (inactive) | > 30 µM (inactive) | > 30 µM (inactive)
18 | C[C@]1(O)C[C@@H](c2nc(-c3ccc4ccc(-c5ccccc5)nc4c3)c3c(N)nccn32)C1 [LINSITINIB] | > 30 µM (inactive) | – | > 30 µM (inactive) | > 30 µM (inactive) | > 30 µM (inactive) | > 30 µM (inactive) | > 30 µM (inactive) | > 30 µM (inactive) | > 30 µM (inactive) | – | > 30 µM (inactive)
